What was measured:
[1] = tested on: Staphylococcus aureus (ATCC 6538); assay: MIC / log kill assay, FDA 510(k) stand-alone procedure; type: cell-based; conditions: for log kill: 12.5 μg/ml
Procedure: (§1) The supernatant was discarded and the wash repeated.
(§2) The tube was inverted to dissolve the polypeptide. […] Solutions were used immediately or stored at −20° C.
(§3) The purpose of this experiment was to determine whether additives such as surfactants (pluronic) and chelating agents (EDTA) would effect L-IND activity. The concentrations selected for each organism tested ( S. aureus and P. aeruginosa) were based on the L-IND MIC for that organism. A lower concentration was also selected to determine whether the additives enhanced the antimicrobial activity of L-IND. Concentrations of L-IND ranged from 3.12 to 50 μg/ml. The concentration of sodium phosphate (SP) buffer was also examined and ranged from 1 to 10 mM.
(§4) A full factorial experimental design was used with 5 factors at 2 levels: 1) Exposure time (1 hr, 4hr); 2) SP buffer concentration, pH 7.4 (1 mM, 10 mM); 3) Surfactant concentration (0.25 wt %, 0.5 wt %); 4) EDTA concentration (0.1 wt %, 0.2 wt %); and 5) L-IND concentration (MIC and lower).
(§5) As described in the MIC procedure (Example 10), cultures were exposed to solutions containing various combinations of the above components for 1 or 4 hr at room temperature. Appropriate controls were conducted to evaluate the effects of individual components. Each replicate (assay done in triplicate) was then diluted 10-fold in NaCl and plated onto Mueller-Hinton agar. Colonies were then counted and log kill, effects of each additive, SP buffer concentration, and length of exposure on L-IND activity were examined. […]

[2] = tested on: Pseudomonas aeruginosa (ATCC 9027); assay: as above; type: cell-based
Procedure: as §1, §2, §3, §4, §5

[3] = tested on: Escherichia coli (ATCC 8739); assay: Protocol 1 kill curve / MIC, 1 hour at 37° C.; type: cell-based; conditions: 6.25 μg/ml, 10 mM sodium phosphate buffer
Procedure: (§6) This protocol is used to develop dose-response (kill) curves to calculate the minimal inhibitory concentration of an indolicidin (e.g., L-indolicidin (L-IND)) when formulated in a commercially available phosphate buffered saline (PBS) solution. In addition, for comparative purposes, kill curves are established for the following three commonly available commercial lens-care products containing different preservatives:
(§7) The stock solutions are diluted in a 2-fold fashion by transferring 1 ml of each stock solution to 1 ml of appropriate diluent in sterile glass tubes (100×13 mm). Twelve additional 2-fold dilutions are made by transferring 1 ml aliquots of each dilution to 1 ml diluent. The diluent for all commercial lens-care products is PBS. […]
(§8) Viable counts of the bacteria are performed by 10-fold serial dilutions in sterile PBS and by plating 0.1 ml aliquots on nutrient agar plates. […] The plates are incubated overnight at 37° C. and colonies are counted and recorded. […]
(§9) Survival is expressed as number of surviving bacteria (CFU/ml) for each dilution of the test article and control solutions. The lowest dose of the test article that results in complete kill of the test organism, compared to the non-exposed control, is determined to be the MIC value. […]

[4] = tested on: Staphylococcus aureus 502A; assay: Dose response of antimicrobial activity in 10 mM sodium phosphate buffer; type: cell-based; conditions: 10 μg/mL indolicidin, 2 hours, 10 mM sodium phosphate buffer pH 7.4, 37° C., 2×10^6 CFU
Procedure: (§10) The time course and dose-dependence of the antimicrobial activity of an antimicrobial peptide can be determined by incubating a microorganism with the antimicrobial peptide and determining the viability after various times of incubation or after treatment with various concentrations of the antimicrobial peptide.
(§11) Exemplary assays using indolicidin and indolicidin analogs were performed in 10 mM sodium phosphate buffer, pH 7.4, at 37° C., as described by Selsted et al. (1985) Infect. Immun. 45:150-154, which is incorporated herein by reference.
(§12) The dose response of a gram negative bacterial strain, Escherichia coli ML35, and a gram positive bacterial strain, Staphylococcus aureus 502A, to indolicidin was determined by incubating 2×10^6 colony forming units (CFU) of log phase bacteria with 0-25 μg/mL of indolicidin for two hours. Following incubation, the cultures were serially diluted and plated on nutrient agar. Viability of both gram negative and gram positive bacteria was reduced by at least four orders of magnitude in incubations containing 10 μg/mL of indolicidin. E. coli was more susceptible than S. aureus, as >95% of the input cells were killed after 2 hr incubation with 2.5 μg/mL indolicidin. The indolicidin diluent, 0.01% acetic acid, had no effect on either bacterial strain.

[5] = tested on: Escherichia coli ML35; assay: Dose response and kinetics of antimicrobial activity in 10 mM sodium phosphate buffer; type: cell-based
Procedure: as §10, §11
as §12, with “The indolicidin diluent, 0.01% acetic acid, had no effect on either bacterial strain.” left out
The kinetics of indolicidin antimicrobial activity was evaluated by incubating 2×10^6 E. coli with […] of indolicidin for 1 to 40 min. […]

[6] = 4.97 mg dry powder
Procedure: 4.97 mg of L-IND #036752, stored at 4° C. in a desiccation) was weighed into a polypropylene microfuge and dissolved in 0.01% acetic acid.

[7] = tested on: P. aeruginosa strain (ATCC 9027); assay: Protocol 1 kill curve / MIC, 1 hour at 37° C.; type: cell-based, Pseudomonas aeruginosa; conditions: 6.25 μg/ml, 10 mM sodium phosphate buffer
Procedure: as §6, §7, §8, §9

## CC[C@H](C)[C@H](N)C(=O)N[C@@H](CC(C)C)C(=O)N1CCC[C@H]1C(=O)N[C@@H](Cc1c[nH]c2ccccc12)C(=O)N[C@@H](CCCCN)C(=O)N[C@@H](Cc1c[nH]c2ccccc12)C(=O)N1CCC[C@H]1C(=O)N[C@@H](Cc1c[nH]c2ccccc12)C(=O)N[C@@H](Cc1c[nH]c2ccccc12)C(=O)N1CCC[C@H]1C(=O)N[C@@H](Cc1c[nH]c2ccccc12)C(=O)N[C@@H](CCCNC(=N)N)C(=O)N[C@@H](CCCNC(=N)N)C(N)=O [L-indolicidin, H2N-ILPWKWPWWPWRR-CONH2]
[1]; 1 mM SP buffer, pluronic and EDTA at either concentration
  log kill: 6 log
[1]; 10 mM SP, without pluronic
  log kill: 6 log
[1]; 10 mM SP, EDTA 0.1 or 0.2 wt %
  effect of EDTA on activity: no effect
[1]; 0.5 wt % pluronic, SP at 5 mM
  inhibition in kill: approximately 4 log
[1]; 32 μ/ml, pluronic and 10 mM SP buffer
  inhibition in kill: > 3 log
[1]; lower SP concentrations (1, 2.5 mM)
  effect of pluronic on activity: no effect in activity
[2]; 32 μ/ml, 0.25 wt % pluronic, either SP buffer concentration
  effect of pluronic on activity: No effect
[2]; pluronic in 1 mM SP buffer, 32 and 16 μg/ml, 4 hr
  inhibition in kill: ~3 log
[3]
  survival: 15%
[4]
  Viability reduction: at least four
[5]; 10 μg/mL indolicidin, 2 hours, 10 mM sodium phosphate buffer pH 7.4, 37° C., 2×10^6 CFU
  Viability reduction: at least four
[5]; 25 μ/mL indolicidin, after 20 min
  culture viability: essentially was sterilized
[6]
  Solubility in 0.01% acetic acid: went into solution immediately
[7]
  survival: 59%

Source: patent US6482799B1, “Self-preserving multipurpose ophthalmic solutions incorporating a polypeptide antimicrobial” (The Regents of the University of California, priority 1999, dated 2002)
